This assay concerns the target Phosphatidylinositol 4,5-bisphosphate 3-kinase catalytic subunit alpha isoform (Homo sapiens, UniProt P42336). Briefly: Biological Assays: The efficacy of compounds of the invention in inhibiting the PI3K induced-lipid phosphorylation may be tested in the following binding assay. The assay combines the scintillation proximity assay technology (SPA, Amersham) with the capacity of neomycin (a polycationic antibiotic) to bind phospholipids with high affinity and specificity. The Scintillation Proximity Assay is based on the properties of weakly emitting isotopes (such as 3H, 125I, 33P). Coating SPA beads with neomycin allows the detection of phosphorylated lipid substrates after incubation with recombinant PI3K and radioactive ATP in the same well, by capturing the radioactive phospholipids to the SPA beads through their specific binding to neomycin. (Scintillation proximity formats need no separation of bound from free tracer.)

Phosphatidylinositol 4,5-bisphosphate 3-kinase catalytic subunit alpha isoform, sequence (P42336 whole entry, canonical isoform): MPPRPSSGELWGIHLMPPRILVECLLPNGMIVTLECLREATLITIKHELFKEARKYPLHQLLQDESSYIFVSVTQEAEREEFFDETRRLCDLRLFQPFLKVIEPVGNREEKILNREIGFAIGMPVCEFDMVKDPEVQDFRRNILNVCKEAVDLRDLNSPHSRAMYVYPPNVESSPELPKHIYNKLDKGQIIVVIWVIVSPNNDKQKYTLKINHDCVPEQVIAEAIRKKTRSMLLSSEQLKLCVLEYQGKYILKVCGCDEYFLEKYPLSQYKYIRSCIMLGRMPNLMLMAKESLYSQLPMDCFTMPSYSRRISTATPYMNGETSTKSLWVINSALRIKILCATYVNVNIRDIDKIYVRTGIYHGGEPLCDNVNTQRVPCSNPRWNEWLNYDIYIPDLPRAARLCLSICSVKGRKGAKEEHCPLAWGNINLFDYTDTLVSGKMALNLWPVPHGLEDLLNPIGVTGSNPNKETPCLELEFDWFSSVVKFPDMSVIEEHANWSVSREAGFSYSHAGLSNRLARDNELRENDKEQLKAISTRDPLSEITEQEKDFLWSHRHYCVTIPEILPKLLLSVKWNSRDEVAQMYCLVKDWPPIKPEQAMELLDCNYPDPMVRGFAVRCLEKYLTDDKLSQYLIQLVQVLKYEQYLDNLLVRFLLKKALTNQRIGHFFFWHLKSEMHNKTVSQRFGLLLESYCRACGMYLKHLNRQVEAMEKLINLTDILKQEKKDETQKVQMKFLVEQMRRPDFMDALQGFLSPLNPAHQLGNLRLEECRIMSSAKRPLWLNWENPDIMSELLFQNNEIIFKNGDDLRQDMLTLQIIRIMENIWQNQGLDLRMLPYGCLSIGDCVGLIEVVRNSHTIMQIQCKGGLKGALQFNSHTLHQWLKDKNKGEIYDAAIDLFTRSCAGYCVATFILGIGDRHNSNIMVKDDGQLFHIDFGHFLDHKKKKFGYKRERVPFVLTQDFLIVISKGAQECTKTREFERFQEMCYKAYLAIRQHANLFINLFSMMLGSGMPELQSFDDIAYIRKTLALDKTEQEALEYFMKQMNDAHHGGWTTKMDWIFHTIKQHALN

For `O=C(O)c1cc(-c2cccc3ccccc23)c2nc(N3CCOCC3)nc(-c3cccc(O)c3)c2n1`, the 50% inhibitory concentration (IC50) was determined as 57 nM.

Broadly, the IC50 is the concentration needed to halve the response being measured.

For the origin of these results see ChEMBL document CHEMBL3639272, “2-morpholino-pyrido[3,2-D]pyrimidines” (2013).
